Measurements as given in US20250059509A1, “METHOD FOR PRODUCING MACROPHAGES, DIFFERENTIATION INDUCING AGENT, DIFFERENTIATION INDUCTION KIT, METHOD FOR CULTURING MACROPHAGES, AGENT FOR PROMOTING MACROPHAGE PROPAGATION, KIT FOR PROMOTING MACROPHAGE PROLIFERATION, METHOD FOR MACROPHAGE PROLIFERATION, AND MACROPHAGES” (Kagoshima University, priority 2021, published 2025).

Assays:
mouse bone marrow cells = test: Induction of differentiation of mouse bone marrow cells with each test substance, viable cells by WST-8 assay; format: cell-based; conditions: plate coated with 1 μg test substance per well; WST-8 on Days 5, 10, 14 and 20; FIG. 10
Procedure: To fresh 10% FBS/RPMI medium, 1/10 volume of WST-8 (07553-15 Cell Count Reagent SF, manufactured by Nacalai Tesque Inc.) was added to prepare a medium for counting the number of viable cells. The old medium in the culture plate was removed by aspiration, and the medium for counting the number of viable cells was dispensed at 100 μl/well. The cells were cultured at 37° C. in a 5% CO2 incubator for 1 hour. The absorbance at 450 nm was measured using a microplate reader.
A 96-well cell culture plate was coated with each test substance in the same manner as described above, and mouse bone marrow cells were plated in the plate at 4×10^4 cells/100 μl/well.

TREM2 = test: Ligand activity using TREM2 reporter cells (GFP-positive cells by flow cytometry); conditions: plate coated with 1 μg test substance per well; reporter cells cultured 16 hours; FIG. 9
Procedure: Using a retroviral vector, TREM2 and DAP12 cDNAs were introduced into 2B4-NFAT-GFP reporter cells (obtained from RIKEN), to prepare reporter cells in which binding of a ligand to TREM2 expressed on the cell surface induces expression of GFP (Iizasa and others, Nature Communications, 2021, vol. 12 (1), p. 2299-16).
As a test substance, β-GluCer, α-GalCer, palmitic acid, stearic acid, cholesterol, PC, LPC, PE, Sulf, or MA was diluted with methanol to 50 μg/ml. The test substance was aliquoted in 20-μl (1-μg) portions into a 96-well cell culture plate, and then the plate was left to stand in a clean bench, to evaporate the methanol.
In the culture plate coated with the test substance, the reporter cells were plated at 5×10^4 cells/100 μl/well. The cells were cultured in a CO2 incubator for 16 hours. The culture was suspended well, and transferred to a V-bottom 96-well plate. The sample was centrifuged at 500 G at 4° C. for 5 minutes, and then the supernatant was discarded. The sample was suspended by adding 50 μl/well of 10 μg/ml PI/1% FBS/HBSS. GFP-positive cells in the sample were analyzed by flow cytometry.

LIMs and BMDMs = test: Cryopreservation test of LIMs and BMDMs; format: cell-based, mouse; conditions: −80° C. for thirty days; 25 ng/ml M-CSF; viable cells Day 6 or Day 14; FIG. 6
Procedure: LIMs and BMDMs at 80 to 90% confluence were detached from culture plates, and separately centrifuged at 500 G for 5 minutes, followed by discarding the supernatant. In a CELLBANKER 1 (manufactured by Nippon Zenyaku Kogyo Co., Ltd.), the cells were suspended at 5×10^5 to 5×10^6 cells per 1 ml, and the resulting suspension was transferred to a CryoTube, and stored at −80° C. Thirty days later, the cells were thawed, and plated in a 24-well plate without stimulation (None), with addition of 25 ng/ml M-CSF (M-CSF), or with brain lipid coating (BL). The number of viable cells on Day 6 or Day 14 after the plating was counted using a hemocytometer.

Molecule | differentiation of bone marrow cells into LIMs (mouse bone marrow cells) | ligand activity for TREM2 (TREM2) | proliferation of BMDMs thawed after cryopreservation (LIMs and BMDMs)
CCCCCCCCCCCCCCCCCCCCCCCCCC(=O)N[C@@H](CO[C@H]1O[C@H](CO)[C@H](O)[C@H](O)[C@H]1O)[C@H](O)[C@H](O)CCCCCCCCCCCCCC [α-GalCer, α-galactosylceramide] | induced differentiation of the bone marrow cells into LIMs | have ligand activity for TREM2 | 
lysophosphatidylcholine [LPC] | induced differentiation of the bone marrow cells into LIMs | have ligand activity for TREM2 | 
mycolic acid [MA] | induced differentiation of the bone marrow cells into LIMs | have ligand activity for TREM2 | 
phosphatidylcholine [PC] | induced differentiation of the bone marrow cells into LIMs | have ligand activity for TREM2 | 
phosphatidylethanolamine [PE] | induced differentiation of the bone marrow cells into LIMs | have ligand activity for TREM2 | 
sulfatide | induced differentiation of the bone marrow cells into LIMs | have ligand activity for TREM2 | 
β-glucosylceramide [β-GluCer] | induced differentiation of the bone marrow cells into LIMs | have ligand activity for TREM2 | 
macrophage colony-stimulating factor (protein, UniProt P07141 33-552, looked up) Macrophage colony-stimulating …: KEVSEHCSHMIGNGHLKVLQQLIDSQMETSCQIAFEFVDQEQLDDPVCYLKKAFFLVQDIIDETMRFKDNTPNANATERLQELSNNLNSCFTKDYEEQNKACVRTFHETPLQLLEKIKNFFNETKNLLEKDWNIFTKNCNNSFAKCSSRDVVTKPDCNCLYPKATPSSDPASASPHQPPAPSMAPLAGLAWDDSQRTEGSSLLPSELPLRIEDPGSAKQRPPRSTCQTLESTEQPNHGDRLTEDSQPHPSAGGPVPGVEDILESSLGTNWVLEEASGEASEGFLTQEAKFSPSTPVGGSIQAETDRPRALSASPFPKSTEDQKPVDITDRPLTEVNPMRPIGQTQNNTPEKTDGTSTLREDHQEPGSPHIATPNPQRVSNSATPVAQLLLPKSHSWGIVLPLGELEGKRSTRDRRSPAELEGGSASEGAARPVARFNSIPLTDTGHVEQHEGSSDPQIPESVFHLLVPGIILVLLTVGGLLFYKWKWRSHRDPQTLDSSVGRPEDSSLTQDEDRQVELPV |  |  | did not proliferate
